Measurements taken from patent publication US7368440B2, “Methods for the administration of amifostine and related compounds” (Medimmune Oncology, Inc., priority 2001, dated 2008).
Where two headings read alike, the source gives them in different places.

Conditions: human, in vivo
Procedure: The reconstituted solution was drawn up in a 10 mL syringe for administration.
This solution was divided into two syringes (1.25 mL per syringe) for administration.
During the infusion, the subjects were kept in a supine position. […] Moreover, all subjects were given a standard lunch at noon, a standard dinner at 6:00 PM and a standard snack at 10:00 PM.
This formulation was administered by gently squirting the solution in the back of the subject's throat. […] All subjects were given a standard lunch at noon, a standard dinner at 6:00 PM and a standard snack at 10:00 PM.
All subjects were given a standard lunch at noon, a standard dinner at 6:00 PM and a standard snack at 10:00 PM.
Non-compartmental modelling of the data was performed.

Relative bioavailability Ratio PO/IV (Metabolite): 0.32
Relative bioavailability Ratio SC/IV (Metabolite): 0.71
time at which WR-1065 concentration fell below 5 μM (iv): approximately 45 minutes
time at which WR-1065 concentration fell below 5 μM (sc): approximately 60 minutes
peak levels (maximum whole blood concentration) (male, iv): about 23 μM
time within which whole blood concentrations peaked and declined rapidly (male, iv): ≤ 10 min
maximum blood levels (male, sc): ~4 µM
time to maximum and sustained whole blood concentration (male, sc): 15 to 45 min
Compound: NCCCNCCS [WR-1065, S-2-(3-Aminopropyl Amino) ethanethiol]
